The experiment addresses Rho-associated protein kinase 2 (Homo sapiens, UniProt O75116). Briefly: In Vitro Assay. As for the experimental part:
The effectiveness of compounds of the present invention as ROCK inhibitors can be determined in a 30 μL assay containing 20 mM HEPES, pH 7.5, 20 mM MgCl2, 0.015% Brij-35, 4 mM DTT, 5 μM ATP and 1.5 μM peptide substrate (FITC-AHA-AKRRRLSSLRA-OH) (SEQ ID No. 1). Compounds were dissolved in DMSO so that the final concentration of DMSO was <2%, and the reaction was initiated with Rho kinase variants. After incubation, the reaction was terminated by the addition of EDTA and the phosphorylated and non-phosphorylated peptides separated using a LABCHIP 3000 Reader (Caliper Life Sciences). […] Compounds were tested in dose-response format, and the inhibition of kinase activity was calculated at each concentration of compound. The inhibition data were fit using a curve-fitting program to determine the IC50; i.e., the concentration of compound required to inhibit 50% of kinase activity.
Chain of Rho-associated protein kinase 2 (O75116 whole entry): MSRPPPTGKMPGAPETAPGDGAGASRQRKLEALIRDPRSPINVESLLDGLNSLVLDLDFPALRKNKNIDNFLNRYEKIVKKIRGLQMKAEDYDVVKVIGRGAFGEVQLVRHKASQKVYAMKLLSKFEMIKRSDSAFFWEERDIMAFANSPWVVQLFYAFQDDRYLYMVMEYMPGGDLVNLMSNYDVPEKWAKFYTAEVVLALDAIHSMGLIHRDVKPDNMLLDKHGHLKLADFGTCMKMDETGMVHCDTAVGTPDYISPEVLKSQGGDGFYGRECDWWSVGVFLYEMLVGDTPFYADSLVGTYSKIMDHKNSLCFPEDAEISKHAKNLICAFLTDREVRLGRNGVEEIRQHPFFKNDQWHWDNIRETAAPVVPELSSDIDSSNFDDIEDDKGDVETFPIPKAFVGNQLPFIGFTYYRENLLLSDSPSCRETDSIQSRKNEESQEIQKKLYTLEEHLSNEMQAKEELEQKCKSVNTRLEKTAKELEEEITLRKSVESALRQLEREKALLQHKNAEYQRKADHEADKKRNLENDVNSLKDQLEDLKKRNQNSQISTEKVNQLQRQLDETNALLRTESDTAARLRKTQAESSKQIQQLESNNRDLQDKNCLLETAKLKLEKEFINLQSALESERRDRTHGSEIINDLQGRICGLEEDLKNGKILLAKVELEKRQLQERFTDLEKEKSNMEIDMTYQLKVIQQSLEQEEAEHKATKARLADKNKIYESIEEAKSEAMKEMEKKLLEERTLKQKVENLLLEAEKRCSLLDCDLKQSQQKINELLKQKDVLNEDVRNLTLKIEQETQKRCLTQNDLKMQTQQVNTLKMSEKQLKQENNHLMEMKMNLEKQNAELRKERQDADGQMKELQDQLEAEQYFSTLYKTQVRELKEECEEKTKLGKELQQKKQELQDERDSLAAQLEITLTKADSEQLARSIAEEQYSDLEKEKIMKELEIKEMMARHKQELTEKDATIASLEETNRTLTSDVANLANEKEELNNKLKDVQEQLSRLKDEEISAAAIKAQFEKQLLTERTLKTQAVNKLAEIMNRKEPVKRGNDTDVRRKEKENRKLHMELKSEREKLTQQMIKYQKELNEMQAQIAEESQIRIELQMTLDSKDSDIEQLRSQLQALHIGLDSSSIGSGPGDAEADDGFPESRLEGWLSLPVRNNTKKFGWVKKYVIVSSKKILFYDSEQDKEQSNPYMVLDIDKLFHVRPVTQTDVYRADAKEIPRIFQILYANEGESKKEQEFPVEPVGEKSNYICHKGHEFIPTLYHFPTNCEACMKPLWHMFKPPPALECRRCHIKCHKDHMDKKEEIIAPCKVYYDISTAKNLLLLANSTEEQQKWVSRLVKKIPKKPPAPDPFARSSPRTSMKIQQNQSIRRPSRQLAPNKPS
As usually defined, the IC50 is the concentration at which inhibition is half-maximal. A lower IC50 goes with greater potency. `NC(=O)c1cccnc1O[C@H]1CC2(C[C@H](Nc3nc(-c4ccccc4Cl)cs3)C2)C1` (some centres not stated) [US11299488, Example 10] had a half-maximal inhibitory concentration (IC50) of 1700 nM.
Regarding `NC(=O)c1cccnc1O[C@H]1CC2(C[C@H](Nc3nc4c(Cl)cc(Cl)cc4s3)C2)C1` (some centres not stated) [US11299488, Example 5], the 50% inhibitory concentration (IC50) turned out to be 105 nM.
In the case of `NC(=O)c1cccnc1O[C@H]1CC2(C[C@H](Nc3nccc(N4CCCC(F)(F)C4)n3)C2)C1` (some centres not stated) [US11299488, Example 36], the IC50 was determined as 175 nM.
`NC(=O)c1cccnc1O[C@H]1CC2(C[C@H](Nc3nc4c(F)cc(Cl)cc4s3)C2)C1` (some centres not stated) [US11299488, Example 7] yielded a half-maximal inhibitory concentration (IC50) of 396 nM.
For `NC(=O)c1cccnc1O[C@H]1CC2(C[C@H](Nc3nc4c(Cl)cccc4s3)C2)C1` (some centres not stated) [US11299488, Example 4], the IC50 was 76 nM.
`COc1cnc(N[C@H]2CC3(C2)C[C@H](Oc2ncccc2C(N)=O)C3)c2cc(Cl)ccc12` (some centres not stated) [US11299488, Example 27] gave an IC50 of 15 nM.
Then `NC(=O)c1cccnc1O[C@H]1CC2(C[C@H](Nc3nc(-c4ccc(Cl)cc4)cs3)C2)C1` (some centres not stated) [US11299488, Example 9], with 3300 nM.

The values are drawn from BindingDB's records for patent US11299488 (Bristol-Myers Squibb Company, 2022).
